The target of this assay is T1, human V1a receptor (Homo sapiens, UniProt P37288).
T1 construct: expressed in transfected cells; host or cells: HEK293 cells, transiently transfected; membranes
As to the kind of experiment: human V1a receptor binding studies (3H-Vasopressin SPA, membranes of transfected HEK293 cells). Particulars: 3H-Vasopressin displacement, HEK293 cell membranes, SPA beads, 1 h at room temperature. On the procedure:
The human V1a receptor was cloned by RT-PCR from total human liver RNA. The coding sequence was subcloned in an expression vector after sequencing to confirm the identity of the amplified sequence. […] Cell membranes were prepared from HEK293-cells transiently transfected with the expression vector and grown in 20 liter fermenters with the following protocol.
50 g of cells are resuspended in 30 ml freshly prepared ice cold Lysis buffer (50 mM HEPES, 1 mM EDTA, 10 mM magnesium dichloride adjusted to pH=7.4+ complete cocktail of protease inhibitor (Roche Diagnostics)). Homogenized with Polytron for 1 min and sonicated on ice for 2×2 minutes at 80% intensity (Vibracell sonicator). The preparation is centrifuged 20 min at 500 g at 4° C., the pellet is discarded and the supernatant centrifuged 1 hour at 43,000 g at 4° C. (19,000 rpm). The pellet is resuspended in 12.5 ml Lysis buffer+12.5 ml sucrose 20% and homogenized using a Polytron for 1-2 min. The protein concentration is determined by the Bradford method and aliquots are stored at −80° C. until use. For binding studies 60 mg Yttrium silicate SPA beads (Amersham®) are mixed with an aliquot of membrane in binding buffer (50 mM Tris, 120 mM sodium chloride, 5 mM potassium chloride, 2 mM calcium dichloride, 10 mM magnesium dichloride) for 15 minutes with mixing. 50 μl of bead/membrane mixture is then added to each well of a 96 well plate, followed by 50 μl of 4 nM 3H-Vasopressin (American Radiolabeled Chemicals). For total binding measurement 100 μl of binding buffer are added to the respective wells, for non-specific binding 100 μl of 8.4 mM cold vasopressin and for compound testing 100 μl of a serial dilution of each compound in 2% dimethyl sulfoxide. The plate is incubated 1 h at room temperature, centrifuged 1 min at 1000 g and counted on a Packard Top-Count. Non-specific binding counts are subtracted from each well and data is normalized to the maximum specific binding set at 100%. To calculate an IC50 the curve is fitted using a non-linear regression model (XLfit) and the Ki is calculated using the Cheng-Prussoff equation.

[1] abbreviates: Ki by Cheng-Prussoff from IC50, read-out: pKi (hV1a) (converted).

Structures are written as SMILES. Where a name gives a salt, the structure may show the parent alone. Read-outs that look alike come from different tables or passages of the source.

T1 sequence (P37288 whole entry): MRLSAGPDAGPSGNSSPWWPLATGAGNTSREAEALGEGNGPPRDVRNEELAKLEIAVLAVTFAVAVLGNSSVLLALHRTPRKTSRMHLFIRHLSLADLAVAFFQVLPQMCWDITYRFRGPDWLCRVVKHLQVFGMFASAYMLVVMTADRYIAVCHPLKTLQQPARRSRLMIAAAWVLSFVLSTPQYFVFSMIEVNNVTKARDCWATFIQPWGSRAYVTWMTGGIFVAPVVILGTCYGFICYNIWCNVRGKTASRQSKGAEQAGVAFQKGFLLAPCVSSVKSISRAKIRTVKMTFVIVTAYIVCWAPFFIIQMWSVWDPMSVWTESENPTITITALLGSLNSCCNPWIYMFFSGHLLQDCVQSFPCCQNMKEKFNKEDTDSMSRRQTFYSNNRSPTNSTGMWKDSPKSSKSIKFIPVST

Turning to `Clc1ccc2c(c1)CNCc1nnc(C3CC=C(c4ccccc4)CC3)n1-2` (racemic) [Example 1, (RS)-8-Chloro-1-(4-phenyl-cyclohex-3-enyl)-5,6-dihydro-4H-2,3,5,10b-tetraaza-benzo[e]azulene hydrochloride], the Ki under setting [1] is 10 nM. For `CN1Cc2cc(Cl)ccc2-n2c(nnc2C2CC=C(c3ccccc3)CC2)C1` (racemic) [Example 2, (RS)-8-Chloro-5-methyl-1-(4-phenyl-cyclohex-3-enyl)-5,6-dihydro-4H-2,3,5,10b-tetraaza-benzo[e]azulene], under “pKi (hV1a), Ki by Cheng-Prussoff from IC50”, the Ki was 2.69 nM.

With `Cc1ccccc1C1=CCC(c2nnc3n2-c2ccc(Cl)cc2CNC3)CC1` (racemic) [Example 3, (RS)-8-Chloro-1-(4-o-tolyl-cyclohex-3-enyl)-5,6-dihydro-4H-2,3,5,10b-tetraaza-benzo[e]azulene hydrochloride], under setting [1], the Ki was 5.13 nM.

Consider `Cc1ccccc1C1=CCC(c2nnc3n2-c2ccc(Cl)cc2CN(C)C3)CC1` (racemic) [Example 4, (RS)-8-Chloro-5-methyl-1-(4-o-tolyl-cyclohex-3-enyl)-5,6-dihydro-4H-2,3,5,10b-tetraaza-benzo[e]azulene], for which the Ki under setting [1] is 2.09 nM. Still for that read-out and setting: the same measure for `CC(C)(C)OC(=O)N1Cc2cc(Cl)ccc2-n2c(nnc2C2CC=C(c3ccc(F)cc3)CC2)C1` (racemic) [Example 5, (RS)-8-Chloro-1-[4-(4-fluoro-phenyl)-cyclohex-3-enyl]-4H,6H-2,3,5,10b-tetraaza-benzo[e]azulene-5-carboxylic acid tert-butyl ester]: 8.32 nM; for `Fc1ccc(C2=CCC(c3nnc4n3-c3ccc(Cl)cc3CNC4)CC2)cc1` (racemic) [Example 6, (RS)-8-Chloro-1-[4-(4-fluoro-phenyl)-cyclohex-3-enyl]-5,6-dihydro-4H-2,3,5,10b-tetraaza-benzo[e]azulene hydrochloride]: 29.5 nM. On the same count and under the same terms, the same measure for `CN1Cc2cc(Cl)ccc2-n2c(nnc2C2CC=C(c3ccc(F)cc3)CC2)C1` (racemic) [Example 7, (RS)-8-Chloro-1-[4-(4-fluoro-phenyl)-cyclohex-3-enyl]-5-methyl-5,6-dihydro-4H-2,3,5,10b-tetraaza-benzo[e]azulene]: 6.76 nM; for `CC(C)(C)OC(=O)N1Cc2cc(Cl)ccc2-n2c(nnc2C2CC=C(c3cccc(OC(F)(F)F)c3)CC2)C1` (racemic) [Example 8, (RS)-8-Chloro-1-[4-(3-trifluoromethoxy-phenyl)-cyclohex-3-enyl]-4H,6H-2,3,5,10b-tetraaza-benzo[e]azulene-5-carboxylic acid tert-butyl ester]: 72.4 nM; for `FC(F)(F)Oc1cccc(C2=CCC(c3nnc4n3-c3ccc(Cl)cc3CNC4)CC2)c1` (racemic) [Example 9, (RS)-8-Chloro-1-[4-(3-trifluoromethoxy-phenyl)-cyclohex-3-enyl]-5,6-dihydro-4H-2,3,5,10b-tetraaza-benzo[e]azulene hydrochloride]: 331 nM. `CN1Cc2cc(Cl)ccc2-n2c(nnc2C2CC=C(c3cccc(OC(F)(F)F)c3)CC2)C1` (racemic) [Example 10, (RS)-8-Chloro-5-methyl-1-[4-(3-trifluoromethoxy-phenyl)-cyclohex-3-enyl]-5,6-dihydro-4H-2,3,5,10b-tetraaza-benzo[e]azulene]: under setting [1], the Ki was 58.9 nM. In the case of `CC(C)(C)OC(=O)N1Cc2cc(Cl)ccc2-n2c(nnc2C2CC=C(c3cccc(F)c3Cl)CC2)C1` (racemic) [Example 11, (RS)-8-Chloro-1-[4-(2-chloro-3-fluoro-phenyl)-cyclohex-3-enyl]-4H,6H-2,3,5,10b-tetraaza-benzo[e]azulene-5-carboxylic acid tert-butyl ester], the Ki under setting [1] is 8.13 nM. As to `Fc1cccc(C2=CCC(c3nnc4n3-c3ccc(Cl)cc3CNC4)CC2)c1Cl` (racemic) [Example 12, (RS)-8-Chloro-1-[4-(2-chloro-3-fluoro-phenyl)-cyclohex-3-enyl]-5,6-dihydro-4H-2,3,5,10b-tetraaza-benzo[e]azulene hydrochloride], the Ki under setting [1] was 28.8 nM.

For the molecule `CN1Cc2cc(Cl)ccc2-n2c(nnc2C2CC=C(c3cccc(F)c3Cl)CC2)C1` (racemic) [Example 13, (RS)-8-Chloro-1-[4-(2-chloro-3-fluoro-phenyl)-cyclohex-3-enyl]-5-methyl-5,6-dihydro-4H-2,3,5,10b-tetraaza-benzo[e]azulene], the Ki under setting [1] was 5.75 nM. As to `CC(C)(C)OC(=O)N1Cc2cc(Cl)ccc2-n2c(nnc2C2CC=C(c3cccc4ccccc34)CC2)C1` (racemic) [Example 14, (RS)-8-Chloro-1-(4-naphthalen-1-yl-cyclohex-3-enyl)-4H,6H-2,3,5,10b-tetraaza-benzo[e]azulene-5-carboxylic acid tert-butyl ester], under setting [1], the Ki was 11 nM. With `Clc1ccc2c(c1)CNCc1nnc(C3CC=C(c4cccc5ccccc45)CC3)n1-2` (racemic) [Example 15, (RS)-8-Chloro-1-(4-naphthalen-1-yl-cyclohex-3-enyl)-5,6-dihydro-4H-2,3,5,10b-tetraaza-benzo[e]azulene hydrochloride], the Ki under setting [1] is 112 nM. In the case of `CN1Cc2cc(Cl)ccc2-n2c(nnc2C2CC=C(c3cccc4ccccc34)CC2)C1` (racemic) [Example 16, (RS)-8-Chloro-5-methyl-1-(4-naphthalen-1-yl-cyclohex-3-enyl)-5,6-dihydro-4H-2,3,5,10b-tetraaza-benzo[e]azulene], the Ki under setting [1] is 19.1 nM. With `COc1ccc(F)cc1C1=CCC(c2nnc3n2-c2ccc(Cl)cc2CN(C(=O)OC(C)(C)C)C3)CC1` (racemic) [Example 17, (RS)-8-Chloro-1-[4-(5-fluoro-2-methoxy-phenyl)-cyclohex-3-enyl]-4H,6H-2,3,5,10b-tetraaza-benzo[e]azulene-5-carboxylic acid tert-butyl ester], under setting [1], the Ki was 20.4 nM. On the same count and under the same terms, for `COc1ccc(F)cc1C1=CCC(c2nnc3n2-c2ccc(Cl)cc2CNC3)CC1` (racemic) [Example 18, (RS)-8-Chloro-1-[4-(5-fluoro-2-methoxy-phenyl)-cyclohex-3-enyl]-5,6-dihydro-4H-2,3,5,10b-tetraaza-benzo[e]azulene hydrochloride] the value was 97.7 nM; for `COc1ccc(F)cc1C1=CCC(c2nnc3n2-c2ccc(Cl)cc2CN(C)C3)CC1` (racemic) [Example 19, (RS)-8-Chloro-1-[4-(5-fluoro-2-methoxy-phenyl)-cyclohex-3-enyl]-5-methyl-5,6-dihydro-4H-2,3,5,10b-tetraaza-benzo[e]azulene], 10 nM; for `CC(C)(C)OC(=O)N1Cc2cc(Cl)ccc2-n2c(nnc2C2CC=C(c3cccc(C#N)c3)CC2)C1` (racemic) [Example 20, (RS)-8-Chloro-1-[4-(3-cyano-phenyl)-cyclohex-3-enyl]-4H,6H-2,3,5,10b-tetraaza-benzo[e]azulene-5-carboxylic acid tert-butyl ester], 46.8 nM.

As for `N#Cc1cccc(C2=CCC(c3nnc4n3-c3ccc(Cl)cc3CNC4)CC2)c1` (racemic) [Example 21, (RS)-3-[4-(8-Chloro-5,6-dihydro-4H-2,3,5,10b-tetraaza-benzo[e]azulen-1-yl)-cyclohex-1-enyl]benzonitrile hydrochloride], the Ki under setting [1] was 427 nM. Still for that read-out and setting: the same measure for `CN1Cc2cc(Cl)ccc2-n2c(nnc2C2CC=C(c3cccc(C#N)c3)CC2)C1` (racemic) [Example 22, (RS)-3-[4-(8-Chloro-5-methyl-5,6-dihydro-4H-2,3,5,10b-tetraaza-benzo[e]azulen-1-yl)-cyclohex-1-enyl]benzonitrile]: 56.2 nM. Still for that read-out and setting: the same measure for `CC(C)(C)OC(=O)N1Cc2cc(Cl)ccc2-n2c(nnc2C2CC=C(c3cc(F)ccn3)CC2)C1` (racemic) [Example 25, (RS)-8-Chloro-1-[4-(4-fluoro-pyridin-2-yl)-cyclohex-3-enyl]-4H,6H-2,3,5,10b-tetraaza-benzo[e]azulene-5-carboxylic acid tert-butyl ester]: 4.68 nM; for `Fc1ccnc(C2=CCC(c3nnc4n3-c3ccc(Cl)cc3CNC4)CC2)c1` (racemic) [Example 26, (RS)-8-Chloro-1-[4-(4-fluoro-pyridin-2-yl)-cyclohex-3-enyl]-5,6-dihydro-4H-2,3,5,10b-tetraaza-benzo[e]azulene]: 110 nM. Turning to `CN1Cc2cc(Cl)ccc2-n2c(nnc2C2CC=C(c3cc(F)ccn3)CC2)C1` (racemic) [Example 27, (RS)-8-Chloro-1-[4-(4-fluoro-pyridin-2-yl)-cyclohex-3-enyl]-5-methyl-5,6-dihydro-4H-2,3,5,10b-tetraaza-benzo[e]azulene], the Ki under setting [1] was 10.5 nM.

Values taken from patent US8461151B2, “Aryl-/heteroaryl-cyclohexenyl-tetraazabenzo[e]azulenes” (Hoffmann-La Roche Inc., priority 2010, dated 2013).
